Reference: patent US12216122B2, “Compositions and methods relating to detection, inhibition, and imaging of indoleamine 2,3-dioxygenase 1 (IDO1)” (Regeneron Pharmaceuticals, Inc., priority 2019, dated 2025)
Read-outs that look alike come from different tables or passages of the source. Numbered stars: 1 amine (or outer) side, 2 acyl side, 3 side chain; on linkers, the order of the positions; unused ones are H or OH. Bridge positions count the residues as written; N and C are the ends. Square brackets hold non-standard residues; d marks the D form. Triazole bridges read from a SMILES are 1,4-linked. Ends that are not written are not given here. Peptide text beside a SMILES is read from it. * marks the point of attachment. ξ: configuration not given here. Biotinyl(3aR,4R,6aS) = O=C1N[C@@H]2[C@@H](CS[C@@H]2CCCCC(=O)*)N1; NH(CH2CH2O)5CH2CO = O=C(COCCOCCOCCOCCOCCN[*:1])[*:2]; Biotinyl(4ξ) = O=C1N[C@H]2CSC(CCCCC(=O)*)[C@H]2N1; X6 = O=C([C@@H](Cc1ccc(Oc2ccccc2)cc1)N[*:1])[*:2]; Biotin = O=C1N[C@H]2[C@H](CS[C@H]2CCCCC(=O)*)N1; dTrp(1-Me) = Cn1cc(C[C@@H](N)C(=O)O)c2ccccc21; NMeLys(N3) = CN[C@@H](CCCCN=[N+]=[N-])C(=O)O; X1 = O=C(CSc1nonc1/C(=N/O)Nc1ccc(F)c(Br)c1)*; Trp(1-Me) = Cn1cc(C[C@H](N)C(=O)O)c2ccccc21; X5 = O=C1N[C@@H]2CSC(CCCCC(=O)*)[C@@H]2N1; PEG8 = NCCOCCOCCOCCOCCOCCOCCOCCOCCC(=O)O; dPhe(4-Me) = Cc1ccc(C[C@@H](N)C(=O)O)cc1; Lys(N3) = [N-]=[N+]=NCCCC[C@H](N)C(=O)O; Phe(4-F) = N[C@@H](Cc1ccc(F)cc1)C(=O)O; X4 = O=C1NC2CS[C@@H](CCCCC(=O)*)C2N1; PEG6 = NCCOCCOCCOCCOCCOCCOCCC(=O)O; dTle = CC(C)(C)[C@@H](N)C(=O)O; dNMeV = CN[C@@H](C(=O)O)C(C)C; PEG4 = NCCOCCOCCOCCOCCC(=O)O; AEEEA = NCCOCCOCCOCC(=O)O; Pra = C#CC[C@H](N)C(=O)O

Experiments:
recombinant human IDO1 = target: T1, recombinant human IDO1 (Homo sapiens, UniProt P14902); test: IDO1 Fluorogenic Inhibitor Screening Assay (enzyme inhibition); assay type: biochemical
T1 construct: purchased BPS Biosciences 72037
Method: The IDO1 Fluorogenic Inhibitor Screening Assay Kit (72037, BPS Biosciences) was used to measure the enzyme inhibition of human IDO1 in the presence of macrocyclic peptide ligands. IDO1 catalyzes the conversion of the essential amino acid L-tryptophan (L-Trp) to N-formylkynurenine (NFK). In the assay, the test inhibitor and enzyme were added to a sample containing L-Trp substrate. After incubation for 1 h at room temperature, 20 μL Fluorescence Solution was added and incubated at 37° C. for 4 h to produce a fluorescent product. Activity was measured by reading sample fluorescence at λ=510 nm following excitation of the reaction product at λ=400 nm.

[1] = target: T2, His-tagged IDO1 human recombinant protein (Homo sapiens, UniProt P14902); test: IDO1 ELISA (Affinity Assay): sandwich ELISA, biotinylated ligand immobilized on NEUTRAVIDIN plate; assay type: binding
T2 construct: purchased BPS Biosciences 71182
Method: Protocol: A black 96-well NEUTRAVIDIN® Coated High Binding Capacity plate (15510, Pierce) was coated with 2 μM biotinylated macrocyclic peptide ligand in TBS (25 mM Tris-HCl, 150 mM NaCl, pH 7.6) for 2 h at room temperature. The plate was aspirated and then washed with Wash Buffer (0.05% (v/v) TWEEN® 20 in PBS, 6×). His-tagged IDO1 human recombinant protein (71182, BPS Biosciences) was serially diluted in Wash Buffer (from 200 to 0 nM) and incubated in the designated microwells for 1 h at room temperature. Microwells were aspirated and subsequently washed with Wash Buffer (11×). To detect the bound IDO1 protein, Alkaline Phosphatase (AP)-conjugated Anti-6×HIS TAG® antibody [HIS-1] (ab49746, Abcam) was prepared at 1:10,000 dilution and added to the microwells for 1 h at room temperature. The plate was aspirated and washed with Wash Buffer (5×). ATTOPHOS® AP Fluorescent Substrate System (S1000, Promega) was employed to develop the microwells. Using an excitation wavelength of 430 nm, fluorescent emission at 535 nm was recorded by Beckman Coulter DTX880 photometer. Titration curves were fit using a four-parameter regression curve fitting program to determine EC50 values.
For these assays, a dilution series of His-tagged IDO1 human recombinant protein was captured using the macrocyclic peptide ligands immobilized on a NEUTRAVIDIN®-coated plate. […] The sequences of the peptide ligands are listed in Table 1, where D-amino acids are denoted in lowercase, Me-Trp=1-methyl-L-tryptophan, and F-Phe=4-fluoro-L-phenylalanine. Chemical structures are shown below Table 1.
The D-alanine substituted, biotin-PEG3-modified macrocycles were tested in the IDO1 ELISA (Affinity assay). For these assays, a dilution series of His-tagged IDO1 human recombinant protein was captured using macrocycles immobilized on a NEUTRAVIDIN®-coated plate.

[2] = N-methylated heterobiligands, PEG6 linker, read-out: IC50
[3] = Table 15, read-out: Inhibition Recombinant IDO1 IC50

T2 sequence (P14902 whole entry): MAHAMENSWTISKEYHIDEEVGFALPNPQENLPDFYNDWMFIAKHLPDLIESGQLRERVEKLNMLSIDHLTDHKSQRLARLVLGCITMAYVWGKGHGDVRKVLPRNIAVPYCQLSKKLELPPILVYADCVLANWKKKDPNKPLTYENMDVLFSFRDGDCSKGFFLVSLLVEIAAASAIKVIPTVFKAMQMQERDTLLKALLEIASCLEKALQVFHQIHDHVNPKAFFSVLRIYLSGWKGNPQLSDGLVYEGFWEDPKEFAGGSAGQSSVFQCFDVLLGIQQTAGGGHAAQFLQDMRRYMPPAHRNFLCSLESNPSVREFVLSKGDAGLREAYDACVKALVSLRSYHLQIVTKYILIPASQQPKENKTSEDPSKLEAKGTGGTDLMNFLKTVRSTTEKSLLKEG
T1 sequence (P14902 whole entry): as above

| Compound | IDO1 inhibition potency relative to the small molecule (Inh) alone, in words (recombinant human IDO1) | Binding to human IDO1 by ELISA, in words [1] | further results |
| --- | --- | --- | --- |
| Inh-PEG6-wyvay ([dW][dY][dV][dA][dY]; also: IDO1 inhibitor via PEG6 linker) | an order of magnitude more potent than the small molecule | – | – |
| N=C(N)NCCC[C@H]1NC(=O)[C@@H](Cc2ccc(O)cc2)NC(=O)[C@@H](Cc2c[nH]c3ccccc23)NC(=O)[C@@H](NC(=O)CCOCCOCCOCCOCCNC(=O)CSc2nonc2/C(=N/O)Nc2ccc(F)c(Br)c2)Cc2cn(nn2)CCCC[C@@H](C(N)=O)NC(=O)[C@@H](Cc2ccc(O)cc2)NC1=O [Inh-PEG4-wyry] ({X1-PEG4}-[Pra][dW][dY][dR][dY][Lys(N3)]-NH2; triazole 1-6) | equal in potency | – | – |
| CC(C)[C@H]1NC(=O)[C@@H](Cc2ccc(O)cc2)NC(=O)[C@@H](Cc2c[nH]c3ccccc23)NC(=O)[C@@H](NC(=O)CCOCCOCCOCCOCCOCCOCCNC(=O)CSc2nonc2/C(=N/O)Nc2ccc(F)c(Br)c2)Cc2cn(nn2)CCCC[C@@H](C(N)=O)N(C)C(=O)[C@@H](Cc2ccc(O)cc2)NC(=O)[C@@H](C)NC1=O [Inh-PEG6-wyvay(N-Me)] ({X1-PEG6}-[Pra][dW][dY][dV][dA][dY][NMeLys(N3)]-NH2; triazole 1-7) | – | – | IC50 (recombinant human IDO1; [2]): 622 nM; IC50 (recombinant human IDO1; [3]): 622 nM |
| CC(=O)N[C@H]1Cc2cn(nn2)CCCC[C@@H](C(N)=O)NC(=O)[C@@H](Cc2ccc(C)cc2)NC(=O)CNC(=O)[C@@H](C(C)(C)C)NC(=O)[C@@H](Cc2ccc(Oc3ccccc3)cc2)NC(=O)[C@@H](Cc2c[nH]c3ccccc23)NC1=O [w(Ph-Tyr)(Me-Val)G(Me-Phe)] (Ac-[Pra][dW][X6][dTle]G[dPhe(4-Me)][Lys(N3)]-NH2; triazole 1-7) | – | – | EC50 ([1]; read-out: Binding affinity (EC50)): 18 nM |
| nlf(Me-Trp)(F-Phe)-Ge-VHL: Epitope 2 peptide ligand linked to VHL E3 ligase ligand ([dN][dL][dF][Trp(1-Me)][Phe(4-F)]; also: Ge linker to VHL E3 ligase ligand) | – | – | EC50 ([1]; binding analysis of VHL-linked Epitope 2 ligand, read-out: EC50): 30 nM |
| NC(=O)[C@@H]1CCCCn2cc(nn2)C[C@H](NC(=O)COCCOCCOCCNC(=O)CCCC[C@@H]2SC[C@@H]3NC(=O)N[C@@H]32)C(=O)N[C@H](CO)C(=O)N[C@H](Cc2c[nH]c3ccccc23)C(=O)N[C@H](Cc2c[nH]c3ccccc23)C(=O)N[C@@H](Cc2ccc(F)cc2)C(=O)N1 [sww(F-Phe), Biotin-PEG3-Cy(sww(F-Phe))] ({Biotin-AEEEA}-[Pra][dS][dW][dW][Phe(4-F)][Lys(N3)]-NH2; triazole 1-6) | – | superior to the other 4-mers generated | – |
| CC(C)[C@@H]1C(=O)N[C@H](C)C(=O)N[C@H](Cc2ccc(O)cc2)C(=O)N[C@H](C(N)=O)CCCCn2cc(nn2)C[C@H](NC(=O)CCOCCOCCOCCOCCOCCOCCNC(=O)CSc2nonc2/C(=N/O)Nc2ccc(F)c(Br)c2)C(=O)N[C@H](Cc2c[nH]c3ccccc23)C(=O)N[C@H](Cc2ccc(O)cc2)C(=O)N1C [Inh-PEG6-wy(N-Me-v)ay] ({X1-PEG6}-[Pra][dW][dY][dNMeV][dA][dY][Lys(N3)]-NH2; triazole 1-7) | – | – | IC50 (recombinant human IDO1; [2]): 1460 nM; IC50 (recombinant human IDO1; [3]): 1460 nM |
| CC(C)[C@H]1NC(=O)[C@@H](Cc2ccc(O)cc2)NC(=O)[C@@H](Cc2c[nH]c3ccccc23)NC(=O)[C@@H](NC(=O)CNC(=O)CNC(=O)CSc2nonc2/C(=N/O)Nc2ccc(F)c(Br)c2)Cc2cn(nn2)CCCC[C@@H](C(N)=O)NC(=O)[C@@H](Cc2ccc(O)cc2)NC(=O)[C@@H](C)NC1=O [Deprotected-Inh-Gly2-wyvay] (X1-GG[Pra][dW][dY][dV][dA][dY][Lys(N3)]-NH2; triazole 3-9) | less active than the small molecule alone | – | – |
| C[C@H]1NC(=O)[C@@H](Cc2ccccc2)NC(=O)[C@@H](CCCNC(=N)N)NC(=O)[C@@H](Cc2ccccc2)NC(=O)[C@@H](NC(=O)COCCOCCOCCNC(=O)CCCCC2SC[C@@H]3NC(=O)N[C@H]23)Cc2cn(nn2)CCCC[C@@H](C(N)=O)NC(=O)[C@@H](CO)NC1=O (stereo partly shown) [frfas, Biotin-PEG3-Cy(frfas)] ({Biotinyl(4ξ)-AEEEA}-[Pra][dF][dR][dF][dA][dS][Lys(N3)]-NH2; triazole 1-7) | – | weakest binding to IDO1 | – |
| PEG4 | less active than the small molecule alone | – | – |
| C[C@H]1NC(=O)[C@@H](CCCNC(=N)N)NC(=O)[C@@H](Cc2c[nH]c3ccccc23)NC(=O)[C@@H](NC(=O)COCCOCCOCCNC(=O)CCCC[C@H]2SC[C@H]3NC(=O)N[C@H]32)Cc2cn(nn2)CCCC[C@@H](C(N)=O)NC(=O)[C@@H](Cc2ccc(O)cc2)NC1=O [wray, Biotin-PEG3-Cy(wray)] ({Biotinyl(3aR,4R,6aS)-AEEEA}-[Pra][dW][dR][dA][dY][Lys(N3)]-NH2; triazole 1-6) | – | less potent binders | – |
| Cn1cc(C[C@H]2NC(=O)[C@@H](CCCNC(=N)N)NC(=O)[C@@H](Cc3ccccc3)NC(=O)[C@@H](CO)NC(=O)[C@@H](CC(N)=O)NC(=O)[C@@H](NC(=O)COCCOCCOCCNC(=O)CCCC[C@@H]3SCC4NC(=O)NC43)Cc3cn(nn3)CCCC[C@@H](C(N)=O)NC2=O)c2ccccc21 (stereo partly shown) [nsfr(Me-Trp), biotin-PEG3-Cy(nsfr(Me-Trp))] ({X4-AEEEA}-[Pra][dN][dS][dF][dR][dTrp(1-Me)][Lys(N3)]-NH2; triazole 1-7) | – | – | EC50 ([1]; 2 μM biotinylated macrocycle immobilized, human IDO1 titrated 200 to 0 nM, read-out: EC50, sandwich ELISA for human IDO1 protein against biotin-PEG3-modified macrocycle): 124 nM; EC50 ([1]; Example 9, read-out: Binding affinity (EC50) of prioritized Epitope 1 hits): 124 nM |
| C[C@H]1NC(=O)[C@@H](CCCNC(=N)N)NC(=O)[C@@H](Cc2ccc(O)cc2)NC(=O)[C@@H](NC(=O)COCCOCCOCCNC(=O)CCCC[C@H]2SC[C@H]3NC(=O)N[C@H]32)Cc2cn(nn2)CCCC[C@@H](C(N)=O)NC(=O)[C@@H](Cc2ccc(O)cc2)NC1=O [yray, Biotin-PEG3-Cy(yray)] ({Biotinyl(3aR,4R,6aS)-AEEEA}-[Pra][dY][dR][dA][dY][Lys(N3)]-NH2; triazole 1-6) | – | less potent binders | – |
| CC(C)C[C@H]1NC(=O)[C@@H](NC(=O)COCCOCCOCCNC(=O)CCCCC2SC[C@H]3NC(=O)N[C@@H]23)Cc2cn(nn2)CCCC[C@@H](C(N)=O)NC(=O)[C@H](Cc2ccc(F)cc2)NC(=O)[C@H](Cc2cn(C)c3ccccc23)NC(=O)[C@@H](Cc2ccccc2)NC1=O (stereo partly drawn) [lf(Me-Trp)(F-Phe), Biotin-PEG3-Cy(lf(Me-Trp)(F-Phe))] ({X5-AEEEA}-[Pra][dL][dF][Trp(1-Me)][Phe(4-F)][Lys(N3)]-NH2; triazole 1-6) | – | slight decrease in binding affinity | – |
| N=C(N)NCCC[C@H]1NC(=O)[C@@H](Cc2ccc(O)cc2)NC(=O)[C@@H](Cc2c[nH]c3ccccc23)NC(=O)[C@@H](NC(=O)CCOCCOCCOCCOCCOCCOCCOCCOCCNC(=O)CSc2nonc2/C(=N/O)Nc2ccc(F)c(Br)c2)Cc2cn(nn2)CCCC[C@@H](C(N)=O)NC(=O)[C@@H](Cc2ccc(O)cc2)NC1=O [Inh-PEG8-wyry] ({X1-PEG8}-[Pra][dW][dY][dR][dY][Lys(N3)]-NH2; triazole 1-6) | significantly less potent than Inh alone | – | – |
| CC(C)[C@H]1NC(=O)[C@@H](Cc2ccc(O)cc2)NC(=O)[C@@H](Cc2c[nH]c3ccccc23)NC(=O)[C@@H](NC(=O)COCCOCCOCCOCCOCCNC(=O)CSc2nonc2/C(=N/O)Nc2ccc(F)c(Br)c2)Cc2cn(nn2)CCCC[C@@H](C(N)=O)NC(=O)[C@@H](Cc2ccc(O)cc2)NC(=O)[C@@H](C)NC1=O [Inh-PEG5-wyvay] (X1-[NH(CH2CH2O)5CH2CO][Pra][dW][dY][dV][dA][dY][Lys(N3)]-NH2; triazole 2-8) | less active than the small molecule alone | – | – |
